In patent publication US20150238614A1, “STABILISED AMORPHOUS FORM OF AGOMELATINE, A PROCESS FOR ITS PREPARATION AND PHARMACEUTICAL COMPOSITIONS CONTAINING IT” (LES LABORATOIRES SERVIER, priority 2012, published 2015):
In brackets after ≈: the same amount, converted by molar mass.

Experiments:
[1] = Glass transition temperature by scanning calorimetric analysis (DSC); format: physicochemical
Protocol: The Applicant has now discovered that agomelatine has an amorphous state whose glass transition temperature has been measured at −6° C. by scanning calorimetric analysis, or DSC (“Differential Scanning calorimetry”). Above that temperature, the active ingredient undergoes a transition towards a crystalline form. Preserving agomelatine in the amorphous state at ambient temperature is therefore not possible.

[2] = 25° C.; cited from earlier work
[3] = Solubility study, Crystal16 apparatus, pH 6.8 buffer, nephelometric detection; format: physicochemical; details: pH 6.8 buffer solution, aqueous buffer, thermodynamic from solid, 25° C., reference under the study conditions, read-out: Solubility of agomelatine (reference)
Protocol: Various concentrations were tested and the presence of insoluble particles was monitored by nephelometric detection.

## COc1ccc2cccc(CCNC(C)=O)c2c1 [agomelatine, N-[2-(7-methoxy-1-naphthyl)ethyl]acetamide]
[1]
  Glass transition temperature of the amorphous state: −6 °C
[2]
  Solubility of agomelatine in water: less than 0.15 mg/ml
[3]
  solubility at 4 h: 140 µg/mL (≈ 575 µM)
